Test results: PubChem BioAssay AID1963868 (Molecular Pharmacology Branch, DTP, NCI, 2024)

System: KRAS PDC tumor spheroids (HUVEC+MSC), viability
Assay: Anticancer human tumor 254851-301-R-J1-PDC patient-derived colon carcinoma cell line growth inhibition [KRAS2]
Conditions: for IC50: curve of first compound; for viability, T/C: stronger effect = lower value
Text: Multicellular complex tumor spheroid response to RAS pathway inhibitors in combination with a targeted agents in patient-derived cell lines with oncogenic KRAS variants from multiple cancer types
A high-throughput screen of multi-cell type tumor spheroids was designed to identify active combinations of targeted small molecules and KRAS pathway inhibitors. Complex spheroids include a stromal component modeled by human endothelial cells (HUVEC) and fibroblasts modeled by human mesenchymal stem cells (MSCs). The concentration ranges selected for each drug and investigational agent were based upon clinically achievable concentrations if the clinical Cmax of the agent was known.
Compounds. The drugs and investigational agents: BI-3406 (NSC825286), BAY-293 (NSC824723), batoprotafib (TNO155; NSC825523), sotorasib (AMG 510; NSC818433), MRTX1257 (NSC819558), elimusertib (BAY 1895344; NSC800525), molibresib (GSK525762; NSC774829), temuterkib (LY3214996; NSC803410), venetoclax (NSC766270), alisertib (NSC759677), olaparib (NSC753686), talazoparib (NSC767125), erdafitinib (NSC781556), ipatasertib (NSC767898), cabozantinib (NSC761068), nintedanib (NSC756659), abemaciclib (NSC768073), docetaxel (NSC628503), trametinib (NSC758246), and sapanisertib (NSC764658) were obtained from the National Cancer Institute (NCI) Developmental Therapeutics Program Chemical Repository. The FDA-approved anticancer drug set is available from the Developmental Therapeutics Program. […] The stock solutions were prepared in dimethyl sulfoxide (DMSO, Sigma-Aldrich, St. Louis, MO, cat. D2650) at 800-fold the tested concentration and stored at -70 degrees C prior to their use. All drugs and investigational agents were tested over a range starting from a high concentration at or near the clinical Cmax and decreasing in half-log increments. If the clinical Cmax for an agent had not been determined, the highest concentration tested was 10 microM.
Cell Culture. All cells were maintained in an incubator at 37 degrees C and 5% CO2 with 95% humidity. The PDC lines were cultured according to standard operating procedures established by the NCI PDMR (https://pdmr.cancer.gov/sops/default.htm). Briefly, all PDCs were thawed and cultured in Matrigel-coated flasks prepared with a working solution of 1X Ham's F-12 nutrient mix, without supplementation (Invitrogen, Waltham, MA, cat. 11765054), 100 U/mL penicillin-streptomycin (Invitrogen, cat. 15140122), and 2.5% Matrigel (Corning Inc., Corning, NY, cat. 354248) for the first three passages. All PDCs were cultured in complete DMEM/F-12 media containing advanced DMEM/F-12 (Invitrogen, cat. 12634028), 4.9% defined fetal bovine serum, heat inactivated (HyClone Laboratories Inc., Logan, UT, cat. SH30070.03HI), 389 ng/mL hydrocortisone (Sigma-Aldrich, cat. H4001), 9.7 ng/mL human EGF recombinant protein (Invitrogen, cat. PHG0313), 23.4 microg/mL adenine (Sigma-Aldrich, cat. A2786), 97.3 U/mL penicillin-streptomycin (Invitrogen, cat. 15140122), 1.9 mM L-glutamine (Invitrogen, cat. 25030081), and 9.7 microM Y-27632 dihydrochloride (Tocris Bioscience, Bristol, United Kingdom, cat. 1254). The PDCs were cultured in complete DMEM/F12 media without 9.7 microM Y-27632 dihydrochloride for at least two passages prior to the screen. The established cell line HOP-62 was cultured in RPMI 1640 medium, HEPES (Invitrogen, cat. 22400105) with 10% defined fetal bovine serum (HyClone Laboratories Inc., cat. SH30070.03) and 2 mM L-glutamine (Invitrogen, cat. 25030081). The pooled donor HUVEC were cultured in endothelial cell growth medium 2 (PromoCell, Heidelberg, Germany, cat. C-22011) and the hMSC were cultured in mesenchymal stem cell growth medium 2 (PromoCell, cat. C-28009). For all experiments, HUVEC and hMSC were used at passages </=5, while the malignant cell lines were used at passages </=15. […]

[1] = second compound 0.1 µM, first compound 0.000316 µM
[2] = second compound 0.1 µM, first compound 0.001 µM
[3] = second compound 0.1 µM, first compound 0.00316 µM
[4] = second compound 0.1 µM, first compound 0.01 µM
[5] = second compound 0.1 µM, first compound 0.0316 µM
[6] = second compound 0.1 µM, first compound 0.1 µM
[7] = second compound 0.316 µM, first compound 0.000316 µM
[8] = second compound 0.316 µM, first compound 0.001 µM
[9] = second compound 0.316 µM, first compound 0.00316 µM
[10] = second compound 0.316 µM, first compound 0.01 µM
[11] = second compound 0.316 µM, first compound 0.0316 µM
[12] = second compound 0.316 µM, first compound 0.1 µM
[13] = second compound 1 µM, first compound 0.000316 µM
[14] = second compound 1 µM, first compound 0.001 µM
[15] = second compound 1 µM, first compound 0.00316 µM
[16] = second compound 1 µM, first compound 0.01 µM
[17] = second compound 1 µM, first compound 0.0316 µM
[18] = second compound 1 µM, first compound 0.1 µM
[19] = second compound 3.16 µM, first compound 0.000316 µM
[20] = second compound 3.16 µM, first compound 0.001 µM
[21] = second compound 3.16 µM, first compound 0.00316 µM
[22] = second compound 3.16 µM, first compound 0.01 µM
[23] = second compound 3.16 µM, first compound 0.0316 µM
[24] = second compound 3.16 µM, first compound 0.1 µM
[25] = second compound 10 µM, first compound 0.000316 µM
[26] = second compound 10 µM, first compound 0.001 µM
[27] = second compound 10 µM, first compound 0.00316 µM
[28] = second compound 10 µM, first compound 0.01 µM
[29] = second compound 10 µM, first compound 0.0316 µM
[30] = second compound 10 µM, first compound 0.1 µM
[31] = second compound 0.1 µM, first compound 0.316 µM
[32] = second compound 0.1 µM, first compound 1 µM
[33] = second compound 0.1 µM, first compound 3.16 µM
[34] = second compound 0.1 µM, first compound 10 µM
[35] = second compound 0.316 µM, first compound 0.316 µM
[36] = second compound 0.316 µM, first compound 1 µM
[37] = second compound 0.316 µM, first compound 3.16 µM
[38] = second compound 0.316 µM, first compound 10 µM
[39] = second compound 1 µM, first compound 0.316 µM
[40] = second compound 1 µM, first compound 1 µM
[41] = second compound 1 µM, first compound 3.16 µM
[42] = second compound 1 µM, first compound 10 µM
[43] = second compound 3.16 µM, first compound 0.316 µM
[44] = second compound 3.16 µM, first compound 1 µM
[45] = second compound 3.16 µM, first compound 3.16 µM
[46] = second compound 3.16 µM, first compound 10 µM
[47] = second compound 10 µM, first compound 0.316 µM
[48] = second compound 10 µM, first compound 1 µM
[49] = second compound 10 µM, first compound 3.16 µM
[50] = second compound 10 µM, first compound 10 µM
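Further: spheroids exposed to compounds for seven days before readout.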
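Wherever viability, T/C is given: 100% = DMSO vehicle control luminescence of the spheroids.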

Row | SMILES | IC50 (second compound 0.1 µM) [nM] | IC50 (second compound 0.316 µM) [nM] | IC50 (second compound 1 µM) [nM] | IC50 (second compound 3.16 µM) [nM] | IC50 (second compound 10 µM) [nM] | viability, T/C [1] [%] | viability, T/C [2] [%] | viability, T/C [3] [%] | viability, T/C [4] [%] | viability, T/C [5] [%] | viability, T/C [6] [%] | viability, T/C [7] [%] | viability, T/C [11] [%] | viability, T/C [12] [%] | viability, T/C [17] [%] | viability, T/C [18] [%] | viability, T/C [23] [%] | viability, T/C [24] [%] | viability, T/C [29] [%] | viability, T/C [30] [%] | also measured
1 | CC(C)n1nc(-c2ccc3oc(N)nc3c2)c2c(N)ncnc21 + C=CC(=O)N1CCN(c2nc(=O)n(-c3c(C)ccnc3C(C)C)c3nc(-c4c(O)cccc4F)c(F)cc23)C(C)C1 | 19.1 | 21.6 | 13.3 | 20.1 | 18.1 | 107 | 110 | 92.8 | 72.8 | 32.3 | 19.8 | 105 | 39.8 | 23.1 | 34.3 | 21.9 | 34.7 | 22.8 | 35.1 | 24 | viability, T/C [8]: 104%; viability, T/C [9]: 97.7%; viability, T/C [10]: 71.2%; viability, T/C [13]: 116%; viability, T/C [14]: 113%; viability, T/C [15]: 102%; viability, T/C [16]: 54.7%; viability, T/C [19]: 103%; viability, T/C [20]: 117%; viability, T/C [21]: 89.7%; viability, T/C [22]: 73.5%; viability, T/C [25]: 98.9%; viability, T/C [26]: 109%; viability, T/C [27]: 88.5%; viability, T/C [28]: 66.4%
2 | CC1(C)CCC(CN2CCN(c3ccc(C(=O)NS(=O)(=O)c4ccc(NCC5CCOCC5)c([N+](=O)[O-])c4)c(Oc4cnc5[nH]ccc5c4)c3)CC2)=C(c2ccc(Cl)cc2)C1 + C=CC(=O)N1CCN(c2nc(=O)n(-c3c(C)ccnc3C(C)C)c3nc(-c4c(O)cccc4F)c(F)cc23)C(C)C1 | > 10000 | > 10000 | > 10000 | > 10000 | > 10000 | – | – | – | – | 106 | 112 | – | 106 | 115 | 114 | 115 | 102 | 119 | 109 | 109 | viability, T/C [31]: 98.2%; viability, T/C [32]: 95.4%; viability, T/C [33]: 95.3%; viability, T/C [34]: 73.6%; viability, T/C [35]: 91.2%; viability, T/C [36]: 95.1%; viability, T/C [37]: 91.3%; viability, T/C [38]: 91.6%; viability, T/C [39]: 105%; viability, T/C [40]: 104%; viability, T/C [41]: 93.8%; viability, T/C [42]: 74.3%; viability, T/C [43]: 102%; viability, T/C [44]: 103%; viability, T/C [45]: 92.7%; viability, T/C [46]: 84.9%; viability, T/C [47]: 97.8%; viability, T/C [48]: 107%; viability, T/C [49]: 93.8%; viability, T/C [50]: 83.7%
3 | COc1cc2nccc(Oc3ccc(NC(=O)C4(C(=O)Nc5ccc(F)cc5)CC4)cc3)c2cc1OC + C=CC(=O)N1CCN(c2nc(=O)n(-c3c(C)ccnc3C(C)C)c3nc(-c4c(O)cccc4F)c(F)cc23)C(C)C1 | > 10000 | > 10000 | > 10000 | > 10000 | > 10000 | – | – | – | – | 108 | 102 | – | 104 | 107 | 109 | 115 | 114 | 112 | 131 | 115 | viability, T/C [31]: 99.3%; viability, T/C [32]: 110%; viability, T/C [33]: 104%; viability, T/C [34]: 65.9%; viability, T/C [35]: 113%; viability, T/C [36]: 110%; viability, T/C [37]: 99.4%; viability, T/C [38]: 57.4%; viability, T/C [39]: 113%; viability, T/C [40]: 103%; viability, T/C [41]: 104%; viability, T/C [42]: 74.8%; viability, T/C [43]: 111%; viability, T/C [44]: 117%; viability, T/C [45]: 108%; viability, T/C [46]: 72.1%; viability, T/C [47]: 111%; viability, T/C [48]: 112%; viability, T/C [49]: 90.8%; viability, T/C [50]: 62.6%
4 | Cn1ncnc1[C@H]1c2n[nH]c(=O)c3cc(F)cc(c23)N[C@@H]1c1ccc(F)cc1 + C=CC(=O)N1CCN(c2nc(=O)n(-c3c(C)ccnc3C(C)C)c3nc(-c4c(O)cccc4F)c(F)cc23)C(C)C1 | > 100 | > 100 | > 100 | > 100 | > 100 | 101 | 99.8 | 99.2 | 99.3 | 106 | 98.8 | 97.5 | 88.5 | 92.4 | 97.7 | 86.5 | 96.3 | 90.4 | 87.4 | 96.8 | viability, T/C [8]: 97.9%; viability, T/C [9]: 96%; viability, T/C [10]: 94.5%; viability, T/C [13]: 90%; viability, T/C [14]: 93.9%; viability, T/C [15]: 98%; viability, T/C [16]: 94.7%; viability, T/C [19]: 97%; viability, T/C [20]: 103%; viability, T/C [21]: 94%; viability, T/C [22]: 94.3%; viability, T/C [25]: 108%; viability, T/C [26]: 99.4%; viability, T/C [27]: 102%; viability, T/C [28]: 91.7%
